# Data: patent US20190077840A1, “SELECTIVE MCL-1 BINDING PEPTIDES” (MASSACHUSETTS INSTITUTE OF TECHNOLOGY, priority 2015, published 2019)
# Numbered stars: 1 amine (or outer) side, 2 acyl side, 3 side chain; on linkers, the order of the positions; unused ones are H or OH. Bridge positions count the residues as written; N and C are the ends. Square brackets hold non-standard residues; d marks the D form. Peptide text beside a SMILES is read from it. ξ: configuration not given here. ξαMeNle(6-ylidene) = CC(CCCC=[*:3])(N[*:1])C(=O)[*:2]; Cha = N[C@@H](CC1CCCCC1)C(=O)O; Nle = CCCC[C@H](N)C(=O)O; Aib = CC(C)(N)C(=O)O
# Legend:
# chymotrypsin = assay: Protease resistance: HPLC half-lives of peptides exposed to chymotrypsin
# MDA-MB 231 = type: cell-based, human
# Text: (§1) A whole-cell BH3 profiling experiment quantifies the dependence of cancer cell mitochondrial integrity on specific anti-apoptotic proteins and can be predictive of cellular responses to chemotherapy (Ryan, J. A.; Brunelle, J. K.; Letai, A. Proc. Natl. Acad. Sci. 2010, 107 (29), 12895 and Ryan, J. A; Letai, A. Methods 2013, 61(2), 156). In this assay, permeabilized cells are stained with dye JC1 to monitor mitochondrial membrane integrity in response to increasing doses of BH3 peptides. We used this assay to test the specificity of our Mcl-1-binding stapled peptides in cell lines with different established dependencies on Bcl-xL and Mcl-1. Mcl-1/Myc 2640 is an engineered murine leukemia cell line overexpressing murine Mcl-1 and Myc, and MDA-MB 231 is a human breast cancer cell line with a primed Bcl-xL-dependent pro-file (Brunelle, J. K.; Ryan, J.; Yecies, D.; Opferman, J. T.; Letai, A. J Cell Biol. 2009, 187 (3), 429 and Ryan, J. A.; Brunelle, J. K.; Letai, A. Proc. Natl. Acad. Sci. 2010, 107 (29), 12895). By BH3 profiling using native BH3 peptides from BAD and NOXAA, we confirmed cell line dependencies on these anti-apoptotic proteins (FIG. 3). […] Mcl-1 2640 cell line is dependent on Mcl-1 whereas MDA-MB-231 is dependent on Bcl-xL, as indicated by response to NoxA and Bad, respectively. […]
# Mcl-1/Myc 2640 = type: cell-based, murine
# Text: as §1
# [1] = Circular dichroism spectroscopy (helicity); type: physicochemical; details: more helical than MS1
# Method: (§2) The standard errors reported are over three experiments.
# The secondary structure of selected stapled peptides was assessed by circular dichroism (CD) spectroscopy (FIG. 1(c)). […] Therefore, the increases in helicity can be attributed to both helix-inducing substitutions: Aib at 2e and Cha at 3a (Armstrong, K. M.; Fairman, R.; Baldwin, R. L. J. Mol Biol. 1993, 230 (1), 284. and Venkatraman, J.; Shankaramma, S. C.; Balaram, P. Chem. Rev. 2001, 101 (10), 3131).
# Mcl-1 = Mcl-1 (Homo sapiens, UniProt Q07820); assay: Competition fluorescence polarization/anisotropy assay with fluoresceinated Bim BH3 peptide for binding to Mcl-1
# Text: as §2
# Position 2e is usually conserved as small (alanine, glycine, serine) in natural BH3 sequences.
# Bax/Bak deficient cells = assay: Whole-cell BH3 profiling in Bax/Bak deficient cells (BBDL); type: cell-based; details: Bax/Bak independent activity indicates non-specific toxicity
# Mcl-1, sequence (Q07820 whole entry): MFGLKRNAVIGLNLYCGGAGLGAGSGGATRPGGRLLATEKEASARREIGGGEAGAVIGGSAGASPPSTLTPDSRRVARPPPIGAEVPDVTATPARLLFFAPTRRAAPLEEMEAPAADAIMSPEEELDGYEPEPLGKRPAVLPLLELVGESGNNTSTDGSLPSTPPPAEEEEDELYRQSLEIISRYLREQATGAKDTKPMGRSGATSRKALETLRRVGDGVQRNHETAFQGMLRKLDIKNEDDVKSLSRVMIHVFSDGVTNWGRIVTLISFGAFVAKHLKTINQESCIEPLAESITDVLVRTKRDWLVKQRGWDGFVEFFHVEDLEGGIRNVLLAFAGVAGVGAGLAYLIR
Compound,half-lives (protease resistance) compared to M1d (chymotrypsin),EC50 (MDA-MB 231) [nM],EC50 (Mcl-1/Myc 2640) [nM],helicity in solution relative to MS1 [1] [fold],Mcl-1-binding affinity in comparison to MS1 (Mcl-1),activity in Bax/Bak deficient cells (Bax/Bak deficient cells)
"CCCC[C@H](NC(=O)[C@H](Cc1c[nH]c2ccccc12)NC(=O)[C@@H](N)[C@@H](C)CC)C(=O)NC(C)(C)C(=O)N[C@@H](CCC(N)=O)C(=O)NCC(=O)N[C@@H](CC(C)C)C(=O)N[C@@H](CCCNC(=N)N)C(=O)N[C@@H](CCCNC(=N)N)C(=O)N[C@@H](CC(C)C)C(=O)NCC(=O)N[C@@H](CC(=O)O)C(=O)N[C@@H](CCC(=O)O)C(=O)N[C@H](C(=O)NC1(C)CCCC=CCCCC(C)(C(=O)N[C@@H](CCCNC(=N)N)C(=O)N[C@@H](CCCNC(=N)N)C(N)=O)NC(=O)[C@H](Cc2ccc(O)cc2)NC(=O)[C@H](Cc2ccc(O)cc2)NC(=O)[C@H](C)NC1=O)[C@@H](C)CC (stereo partly shown) [M2d, IWBAibQGLRRLGDEIXAYYXRR] (H-IW[Nle][Aib]QGLRRLGDEI[ξαMeNle(6-ylidene)]AYY[ξαMeNle(6-ylidene)]RR-NH2; staple 15-19)",longer half-lives,,,,,
"CCCC[C@H](NC(=O)[C@H](Cc1c[nH]c2ccccc12)NC(=O)[C@@H](N)[C@@H](C)CC)C(=O)NC(C)(C)C(=O)N[C@@H](CCC(N)=O)C(=O)NCC(=O)N[C@@H](CC1CCCCC1)C(=O)N[C@@H](CCCNC(=N)N)C(=O)N[C@@H](CCCNC(=N)N)C(=O)N[C@@H](CC(C)C)C(=O)NCC(=O)N[C@@H](CC(=O)O)C(=O)N[C@@H](CCC(=O)O)C(=O)N[C@H](C(=O)NC1(C)CCCC=CCCCC(C)(C(=O)N[C@@H](CCCNC(=N)N)C(=O)N[C@@H](CCCNC(=N)N)C(N)=O)NC(=O)[C@H](Cc2ccc(O)cc2)NC(=O)[C@H](Cc2ccc(O)cc2)NC(=O)[C@H](C)NC1=O)[C@@H](C)CC (stereo partly shown) [M3d, IWBAibQGChaRRLGDEIXAYYXRR] (H-IW[Nle][Aib]QG[Cha]RRLGDEI[ξαMeNle(6-ylidene)]AYY[ξαMeNle(6-ylidene)]RR-NH2; staple 15-19)",longer half-lives,> 5000,30,,,
IWBTQGLRRLGDEIXAYYXRR [M1d],,,,~3,improved,Bax/Bak independent activity
